Tests used:
Type in all cases: in vivo
[1] = test system: transgenic mice overexpressing leptin (LepTg) under the high fat diet condition; assay: Test Example 1: effects to improve metabolism in transgenic mice overexpressing leptin under a high fat diet condition; conditions: 60% high fat diet, 50 mg/kg/day intraperitoneal once a day, four weeks; for weight of the adipose tissues: epididymal
Method: Eight-week old male wild type mice and transgenic mice overexpressing leptin (LepTg) (Ogawa et al. Diabetes 48: 1822-1829, 1999, prepared in Department of Endocrinology and Metabolism, Kyoto University) were divided into three treatment groups, respectively: “standard diet (SD)+vehicle (V)”, “60% high fat diet (HFD)+vehicle”, and “60% high fat diet+Compound 57”. The mice were kept for four weeks with ad libitum feeding, and the body weight and the food intake of the mice were measured. The vehicle and Compound 57 were administered to the mice by intraperitoneal injection once a day. The dosage of Compound 57 was 50 mg/kg/day. After the four weeks the mice were sacrificed and blood, epididymal adipose tissues, and the liver were collected. The weight of the adipose tissues, the liver weight, the liver triglyceride levels, and the plasma levels of glucose, insulin, total cholesterol (T-chol), triglyceride (TG), and nonesterified fatty acid (NEFA) were measured (n=5 for each group). The equivalent dosage of Compound 32 was tested in a similar manner (n=5 for each group).

[2] = test system: leptin-deficient ob/ob mice; assay: Test Example 2: effects to improve metabolism in leptin-deficient ob/ob mice; conditions: standard diet, 50 mg/kg/day intraperitoneal once a day, four weeks; for weight of the adipose tissues: epididymal; for nonesterified fatty acid levels / total cholesterol levels / triglyceride levels: plasma
Method: Ob/ob mice cannot produce leptin due to a mutation in the leptin gene (Zhang et al. Nature 372: 425-432, 1994). Eight-week old male ob/ob mice, purchased from CHARLES RIVER LABORATORIES JAPAN, INC., were divided into two treatment groups: “Vehicle (V)” and “Compound 57”. The mice were kept for four weeks with ad libitum feeding of standard diet (SD), and the body weight and the food intake of the mice were measured. The vehicle and Compound 57 were administered to the mice by intraperitoneal injection once a day. The dosage of Compound 57 was 50 mg/kg/day. After the four weeks the mice were sacrificed and blood, epididymal adipose tissues, and the liver were collected. The weight of the adipose tissues, the liver weight, the liver triglyceride levels, and the plasma levels of glucose, insulin, total cholesterol (T-chol), triglyceride (TG) and nonesterified fatty acid (NEFA) were measured (n=5 for each group). The equivalent dosage of Compound 32 was tested in a similar manner (n=5 for each group).

[3] = test system: leptin-deficient Lepmkyo/Lepmkyo rats; assay: Test Example 6: effects to improve metabolism in leptin-deficient Lepmkyo/Lepmkyo rats; conditions: standard diet, 20 mg/kg/day intraperitoneal once a day, four weeks; for body weight: versus vehicle
Method: Lepmkyo/Lepmkyo rats cannot produce leptin due to a mutation in the leptin gene (Aizawa-Abe et al. Physiol Genomics 45: 786-793, 2013, prepared in Institute of Laboratory Animals, Graduate School of Medicine, Kyoto University). Eight-week old male Lepmkyo/Lepmkyo rats were divided into three treatment groups: “Vehicle (V)”, “Compound 57”, and “Compound 32”. The rats were kept for four weeks with ad libitum feeding of standard diet, and the body weight of the rats were measured. The vehicle, Compound 57, and Compound 32 were administered to the rats by intraperitoneal injection once a day. The each dosage of Compounds 57 and 32 was 20 mg/kg/day. After the four weeks the rats were sacrificed, blood was collected, and the plasma levels of glucose and insulin were measured (n =5 for each group).

[4] = test system: wild type rats having diet-induced obesity; assay: Test Example 8: effects to improve metabolism in rats having diet-induced obesity caused by a high fat diet; conditions: wild type rats obese after four-week high fat diet, continued high fat diet, 20 mg/kg/day intraperitoneal once a day, further four weeks; for weight of the adipose tissues: epididymal
Method: Eight-week old male wild type rats were divided into two groups (n =5 and 15) and kept for four weeks under a standard diet (SD) or a high fat diet (HFD) condition. All the rats fed with the standard diet for the four weeks were assigned to the group “vehicle (V)” and fed with the standard diet for further four weeks, and then the body weight of the rats was measured. The rats fed with the high fat diet for the four weeks were divided into three groups: “vehicle”, “Compound 57”, and “Compound 32”, and fed with the high fat diet for further four weeks, and then the body weight of the rats was measured. The vehicle, Compound 57, and Compound 32 were administered to the rats by intraperitoneal injection once a day. The each dosage of Compounds 57 and 32 was 20 mg/kg/day. Finally the rats were sacrificed, blood, epididymal adipose tissues, and the liver were collected, and the weight of the adipose tissues, the liver weight, and the plasma levels of glucose, insulin, total cholesterol, triglyceride, and nonesterified fatty acid were measured (n =5 for each group).

In the case of `Nc1c(/N=N/c2ccc(-c3cccc4c3sc3ccccc34)nc2)cc(S(=O)(=O)[O-])c2ccccc12.[Na+]` [Compound 57, 4-amino-3-(6-dibenzothiophene-4-ylpyridine-3-ylazo)naphthalene-1-sulfonic acid sodium salt], the body weight [1] is reported as “did not increase”, the food intake [1] is reported as “did not increase” and the liver triglyceride levels [1] is reported as “did not increase”. The liver weight [1] was “did not increase”, the plasma insulin levels [1] was “did not increase” and the “plasma level of nonesterified fatty acid” value [1] was “did not increase”. For the same compound, the “plasma level of total cholesterol” value [1] was “did not increase”, the “plasma level of triglyceride” value [1] was “did not increase” and the “random plasma glucose levels” value [1] was “did not increase”. For the same compound, the “weight of the adipose tissues” value [1] was “did not increase”, the body weight [2] was “decreased” and the food intake [2] was “did not change”. The liver triglyceride levels [2] was “decreased”, the liver weight [2] was “decreased” and the plasma insulin levels [2] was “did not change”. For the same compound, the “random plasma glucose levels” value [2] was “did not change”, the “weight of the adipose tissues” value [2] was “decreased” and the “nonesterified fatty acid levels” value [2] was “decreased”. For the same compound, the total cholesterol levels [2] was “decreased”, the triglyceride levels [2] was “did not clearly change” and the plasma insulin [3] was “did not change”. The “random plasma glucose levels” value [3] was “did not change”, the body weight [3] was “No difference” and the body weight [4] was “decreased”. For the same compound, the “plasma level of glucose” value [4] was “decreased”, the “plasma level of insulin” value [4] was “decreased” and the “plasma level of nonesterified fatty acid” value [4] was “decreased”. The “plasma level of total cholesterol” value [4] was “decreased”, the “plasma level of triglyceride” value [4] was “decreased” and the “weight of the adipose tissues” value [4] was “decreased”.

With `Cc1cc(F)ccc1-c1ccc(/N=N/c2cc(S(=O)(=O)[O-])c3ccccc3c2N)cn1.[Na+]` [Compound 32, 4-amino-3-[6-(4-fluoro-2-methylphenyl)pyridine-3-ylazo]naphthalene-1-sulfonic acid sodium salt] the body weight [1] was “did not increase”, the food intake [1] was “did not increase” and the liver triglyceride levels [1] was “did not increase”. The liver weight [1] was “did not increase”, the plasma insulin levels [1] was “did not increase” and the “plasma level of nonesterified fatty acid” value [1] was “did not increase”. The “plasma level of total cholesterol” value [1] was “did not increase”, the “plasma level of triglyceride” value [1] was “did not increase” and the “random plasma glucose levels” value [1] was “did not increase”. For the same compound, the “weight of the adipose tissues” value [1] was “did not increase”, the body weight [2] was “did not” and the food intake [2] was “did not change”. For the same compound, the liver triglyceride levels [2] was “did not change”, the liver weight [2] was “did not change” and the plasma insulin levels [2] was “did not change”. The “random plasma glucose levels” value [2] was “did not change”, the “weight of the adipose tissues” value [2] was “did not change” and the “nonesterified fatty acid levels” value [2] was “did not change”. For the same compound, the total cholesterol levels [2] was “did not change”, the triglyceride levels [2] was “did not change” and the plasma insulin [3] was “did not change”. For the same compound, the “random plasma glucose levels” value [3] was “did not change”, the body weight [3] was “No difference” and the body weight [4] was “decreased”. The “plasma level of glucose” value [4] was “decreased”, the “plasma level of insulin” value [4] was “decreased” and the “plasma level of nonesterified fatty acid” value [4] was “decreased”. For the same compound, the “plasma level of total cholesterol” value [4] was “decreased”, the “plasma level of triglyceride” value [4] was “decreased” and the “weight of the adipose tissues” value [4] was “decreased”.

Reference: patent US9931351B2, “Method for improving leptin resistance” (Kyoto University, priority 2013, dated 2018)
